Data taken from US9139523B2, “5-HT2B receptor antagonists” (Janssen Pharmaceutica, NV, priority 2010, dated 2015).
Like-named read-outs stand apart in the source and are kept apart here.

Assays:
[1] = Monocrotaline-induced pulmonary arterial hypertension in the rat; type: in vivo; details: male, Sprague Dawley, in vivo, po, rat, 2 hours post-dosing at day 21, read-out: mean plasma concentration
Protocol: Compound (−)-17 was tested in monocrotaline-induced pulmonary arterial hypertension in the rat (see e.g., Stenmark et al, 2009, Am J Physiol Lung Cell Mol Physiol 297, L1013-L1032). Measurements included: mean arterial blood pressure and right ventricular pressure in vivo, ratio of right ventricular weight to left ventricular weight plus septum as an index of right ventricular hypertrophy, pulmonary artery acceleration time, and histological assessement of muscularization of pulmonary arteries.
Monocrotaline was dissolved in 1 N HCl and then into distilled water, and pH was adjusted to 7.4 using NaOH. A single dose of 60 mg/kg monocrotaline was administered subcutaneously on day 0 to three groups of male Sprague Dawley rats. The test article Compound (−)-17 was dissolved in 20% hydroxypropyl-beta-cyclodextrin with NaOH, HCl and mannitol in pyrogen-free water and administered orally by gavage (10 ml/kg) once daily from day 1 for 21 days at 10 mg/kg and 50 mg/kg. […] Corresponding volumes of 20% hydroxypropyl-beta-cyclodextrin vehicle were administered orally according to the same protocol in a third group of animals.

[2] = Cardio-hemodynamic, cardio-electrophysiological, EEG and pulmonary effects in ventilated, anesthetized dogs; type: in vivo, dog; details: Beagle, plasma, iv, dog, 5-min i.v. infusion
Protocol: (§1) The animals were anesthetized with a mixture of 0.015 mg/kg i.v. scopolamine and 0.075 mg/kg i.v. lofentanil, and relaxed with succinylcholine (5 mg/kg i.v.) followed by a continuous i.v. infusion of 1.5 mg/kg/h of etomidate and small additional doses of fentanyl (0.025 mg/kg i.v.) were given at 60 min intervals. The animals were ventilated and prepared for measurements of the surface ECG, aortic-, pulmonary- and left ventricular blood pressure, carotid blood flow, monophasic action potential, body temperature, blood gasses and EEG (see Van Deuren et al, J Pharmacol Toxicol Methods; 2009; 60: 11-23). Compound (−)-17 was dissolved in 20% hydroxypropyl-cyclodextrin with NaOH, HCl and mannitol in pyrogen-free water and administered intravenously (1 ml/kg) in increasing doses (0.16, 0.32, 0.63, 1.25, 2.5 and 5 mg/kg) over a period of 5 min at 30-min intervals. Plasma concentrations of Compound (−)-17 were measured before and at the end of each infusion. Corresponding volumes of vehicle were administered according to the same protocol in a second group of animals.

[3] = system: anesthetized dogs (Beagles); assay: as above; type: in vivo, dog; details: for Median plasma level: 5-min i.v. infusion
Protocol: as §1

COc1cc(N)c(Cl)cc1C(=O)NC1CCN(CCCOc2ccc(F)cc2)CC1(F)F (single isomer, unassigned) [Compound (−)-17, 4-amino-5-chloro-N-{3,3-difluoro-1-[3-(4-fluorophenoxy)-propyl]-piperidin-4-yl}-2-methoxybenzamide]
concentration at 2 h ([1]; 10 mg/kg, 10 mg p.o. once daily): ~80 ng/mL | concentration at 2 h ([1]; 50 mg/kg, 50 mg p.o. once daily): 1000 ng/mL | Cmax ([2]; dose 1.25 mg/kg (increasing doses, 30-min intervals), read-out: Median plasma level (Cmax)): 5200 ng/mL | Cmax ([2]; dose 2.5 mg/kg (increasing doses, 30-min intervals), read-out: Median plasma level (Cmax)): 9550 ng/mL | Cmax ([2]; dose 5 mg/kg (increasing doses, 30-min intervals; total dose 9.86 mg/kg), read-out: Median plasma level (median Cmax)): 20400 ng/mL | DPP, percentage change relative to vehicle ([3]; dog i.v. 0.16 mg/kg @ 5′): +3% | HR, percentage change relative to vehicle ([3]; dog i.v. 0.16 mg/kg @ 5′): −4% | LVdp/dtmax, percentage change relative to vehicle ([3]; dog i.v. 0.16 mg/kg @ 5′): −1% | MBP, percentage change relative to vehicle ([3]; dog i.v. 0.16 mg/kg @ 5′): +2% | PQ, percentage change relative to vehicle ([3]; dog i.v. 0.16 mg/kg @ 5′): −1% | QRS, percentage change relative to vehicle ([3]; dog i.v. 0.16 mg/kg @ 5′): +1% | QTcV, percentage change relative to vehicle ([3]; dog i.v. 0.16 mg/kg @ 5′): +2% | SPP, percentage change relative to vehicle ([3]; dog i.v. 0.16 mg/kg @ 5′): +2% | DPP, percentage change relative to vehicle ([3]; dog i.v. 0.16 mg/kg @ 30′): −3% | HR, percentage change relative to vehicle ([3]; dog i.v. 0.16 mg/kg @ 30′): −5% | LVdp/dtmax, percentage change relative to vehicle ([3]; dog i.v. 0.16 mg/kg @ 30′): +0% | MBP, percentage change relative to vehicle ([3]; dog i.v. 0.16 mg/kg @ 30′): +3% | PQ, percentage change relative to vehicle ([3]; dog i.v. 0.16 mg/kg @ 30′): −0% | QRS, percentage change relative to vehicle ([3]; dog i.v. 0.16 mg/kg @ 30′): +2% | QTcV, percentage change relative to vehicle ([3]; dog i.v. 0.16 mg/kg @ 30′): +4% | SPP, percentage change relative to vehicle ([3]; dog i.v. 0.16 mg/kg @ 30′): +5% | DPP, percentage change relative to vehicle ([3]; dog i.v. 0.32 mg/kg @ 5′): +0% | HR, percentage change relative to vehicle ([3]; dog i.v. 0.32 mg/kg @ 5′): −5% | LVdp/dtmax, percentage change relative to vehicle ([3]; dog i.v. 0.32 mg/kg @ 5′): +0% | MBP, percentage change relative to vehicle ([3]; dog i.v. 0.32 mg/kg @ 5′): +5% | PQ, percentage change relative to vehicle ([3]; dog i.v. 0.32 mg/kg @ 5′): −2% | QRS, percentage change relative to vehicle ([3]; dog i.v. 0.32 mg/kg @ 5′): +3% | QTcV, percentage change relative to vehicle ([3]; dog i.v. 0.32 mg/kg @ 5′): +2% | SPP, percentage change relative to vehicle ([3]; dog i.v. 0.32 mg/kg @ 5′): +11% | DPP, percentage change relative to vehicle ([3]; dog i.v. 0.32 mg/kg @ 30′): −8% | HR, percentage change relative to vehicle ([3]; dog i.v. 0.32 mg/kg @ 30′): +3% | LVdp/dtmax, percentage change relative to vehicle ([3]; dog i.v. 0.32 mg/kg @ 30′): −4% | MBP, percentage change relative to vehicle ([3]; dog i.v. 0.32 mg/kg @ 30′): +2% | PQ, percentage change relative to vehicle ([3]; dog i.v. 0.32 mg/kg @ 30′): −2% | QRS, percentage change relative to vehicle ([3]; dog i.v. 0.32 mg/kg @ 30′): +4% | QTcV, percentage change relative to vehicle ([3]; dog i.v. 0.32 mg/kg @ 30′): +1% | SPP, percentage change relative to vehicle ([3]; dog i.v. 0.32 mg/kg @ 30′): −3% | DPP, percentage change relative to vehicle ([3]; dog i.v. 0.63 mg/kg @ 5′): +0% | HR, percentage change relative to vehicle ([3]; dog i.v. 0.63 mg/kg @ 5′): −0% | LVdp/dtmax, percentage change relative to vehicle ([3]; dog i.v. 0.63 mg/kg @ 5′): −3% | MBP, percentage change relative to vehicle ([3]; dog i.v. 0.63 mg/kg @ 5′): +6% | PQ, percentage change relative to vehicle ([3]; dog i.v. 0.63 mg/kg @ 5′): +3% | QRS, percentage change relative to vehicle ([3]; dog i.v. 0.63 mg/kg @ 5′): +4% | QTcV, percentage change relative to vehicle ([3]; dog i.v. 0.63 mg/kg @ 5′): +1% | SPP, percentage change relative to vehicle ([3]; dog i.v. 0.63 mg/kg @ 5′): −2% | DPP, percentage change relative to vehicle ([3]; dog i.v. 0.63 mg/kg @ 30′): −9% | HR, percentage change relative to vehicle ([3]; dog i.v. 0.63 mg/kg @ 30′): +4% | LVdp/dtmax, percentage change relative to vehicle ([3]; dog i.v. 0.63 mg/kg @ 30′): −2% | MBP, percentage change relative to vehicle ([3]; dog i.v. 0.63 mg/kg @ 30′): +2% | PQ, percentage change relative to vehicle ([3]; dog i.v. 0.63 mg/kg @ 30′): −0% | QRS, percentage change relative to vehicle ([3]; dog i.v. 0.63 mg/kg @ 30′): +1% | QTcV, percentage change relative to vehicle ([3]; dog i.v. 0.63 mg/kg @ 30′): +4% | SPP, percentage change relative to vehicle ([3]; dog i.v. 0.63 mg/kg @ 30′): −1% | DPP, percentage change relative to vehicle ([3]; dog i.v. 1.25 mg/kg @ 5′): −7% | HR, percentage change relative to vehicle ([3]; dog i.v. 1.25 mg/kg @ 5′): −0% | LVdp/dtmax, percentage change relative to vehicle ([3]; dog i.v. 1.25 mg/kg @ 5′): −1% | MBP, percentage change relative to vehicle ([3]; dog i.v. 1.25 mg/kg @ 5′): +10% | PQ, percentage change relative to vehicle ([3]; dog i.v. 1.25 mg/kg @ 5′): +2% | QRS, percentage change relative to vehicle ([3]; dog i.v. 1.25 mg/kg @ 5′): +4% | QTcV, percentage change relative to vehicle ([3]; dog i.v. 1.25 mg/kg @ 5′): +2% | SPP, percentage change relative to vehicle ([3]; dog i.v. 1.25 mg/kg @ 5′): −1% | DPP, percentage change relative to vehicle ([3]; dog i.v. 1.25 mg/kg @ 30′): −12% | HR, percentage change relative to vehicle ([3]; dog i.v. 1.25 mg/kg @ 30′): −3% | LVdp/dtmax, percentage change relative to vehicle ([3]; dog i.v. 1.25 mg/kg @ 30′): −5% | MBP, percentage change relative to vehicle ([3]; dog i.v. 1.25 mg/kg @ 30′): +0% | PQ, percentage change relative to vehicle ([3]; dog i.v. 1.25 mg/kg @ 30′): +2% | QRS, percentage change relative to vehicle ([3]; dog i.v. 1.25 mg/kg @ 30′): +2% | QTcV, percentage change relative to vehicle ([3]; dog i.v. 1.25 mg/kg @ 30′): +1% | SPP, percentage change relative to vehicle ([3]; dog i.v. 1.25 mg/kg @ 30′): −9% | DPP, percentage change relative to vehicle ([3]; dog i.v. 2.5 mg/kg @ 5′): +1% | HR, percentage change relative to vehicle ([3]; dog i.v. 2.5 mg/kg @ 5′): −5% | LVdp/dtmax, percentage change relative to vehicle ([3]; dog i.v. 2.5 mg/kg @ 5′): −8% | PQ, percentage change relative to vehicle ([3]; dog i.v. 2.5 mg/kg @ 5′): +6% | QRS, percentage change relative to vehicle ([3]; dog i.v. 2.5 mg/kg @ 5′): +2% | QTcV, percentage change relative to vehicle ([3]; dog i.v. 2.5 mg/kg @ 5′): −3% | SPP, percentage change relative to vehicle ([3]; dog i.v. 2.5 mg/kg @ 5′): −1% | DPP, percentage change relative to vehicle ([3]; dog i.v. 2.5 mg/kg @ 30′): −24% | HR, percentage change relative to vehicle ([3]; dog i.v. 2.5 mg/kg @ 30′): −4% | LVdp/dtmax, percentage change relative to vehicle ([3]; dog i.v. 2.5 mg/kg @ 30′): +2% | MBP, percentage change relative to vehicle ([3]; dog i.v. 2.5 mg/kg @ 30′): +0% | PQ, percentage change relative to vehicle ([3]; dog i.v. 2.5 mg/kg @ 30′): +2% | QRS, percentage change relative to vehicle ([3]; dog i.v. 2.5 mg/kg @ 30′): +3% | QTcV, percentage change relative to vehicle ([3]; dog i.v. 2.5 mg/kg @ 30′): −1% | SPP, percentage change relative to vehicle ([3]; dog i.v. 2.5 mg/kg @ 30′): −15% | DPP, percentage change relative to vehicle ([3]; dog i.v. 5 mg/kg @ 5′): +17% | HR, percentage change relative to vehicle ([3]; dog i.v. 5 mg/kg @ 5′): −15% | LVdp/dtmax, percentage change relative to vehicle ([3]; dog i.v. 5 mg/kg @ 5′): −11% | PQ, percentage change relative to vehicle ([3]; dog i.v. 5 mg/kg @ 5′): +2% | QRS, percentage change relative to vehicle ([3]; dog i.v. 5 mg/kg @ 5′): +6% | QTcV, percentage change relative to vehicle ([3]; dog i.v. 5 mg/kg @ 5′): −3% | SPP, percentage change relative to vehicle ([3]; dog i.v. 5 mg/kg @ 5′): −10% | DPP, percentage change relative to vehicle ([3]; dog i.v. 5 mg/kg @ 30′): −5% | HR, percentage change relative to vehicle ([3]; dog i.v. 5 mg/kg @ 30′): −14% | LVdp/dtmax, percentage change relative to vehicle ([3]; dog i.v. 5 mg/kg @ 30′): +2% | MBP, percentage change relative to vehicle ([3]; dog i.v. 5 mg/kg @ 30′): +0% | QRS, percentage change relative to vehicle ([3]; dog i.v. 5 mg/kg @ 30′): +3% | QTcV, percentage change relative to vehicle ([3]; dog i.v. 5 mg/kg @ 30′): −2% | SPP, percentage change relative to vehicle ([3]; dog i.v. 5 mg/kg @ 30′): −7% | effect on heart rate, pulmonary artery pressure, LV end diastolic pressure, cardiac output, stroke volume, pressure rate product, PQ and QRS, lung function, body temperature, EEG ([3]; dog, 0.16 up to 5 mg/kg i.v., relative to vehicle): no relevant effect | Median plasma level ([3]; dog, dose 0.16 mg/kg (increasing doses, 30-min intervals)): 725 ng/mL | Median plasma level ([3]; dog, dose 0.32 mg/kg (increasing doses, 30-min intervals)): 1420 ng/mL | Median plasma level ([3]; dog, dose 0.64 mg/kg (increasing doses, 30-min intervals)): 2540 ng/mL | LV dp/dtmax/pd ([3]; dog, at 2.5 mg/kg i.v.): started to decrease | duration of QTc VDW and QTc VcT ([3]; dog, at 5 mg/kg i.v.): minor decrease | arterial blood pressure, vascular resistance (systemic and common carotid) and Tau ([3]; dog, from 1.25 mg/kg i.v. onwards): started to increase
